PubChem BioAssay AID179 (DTP/NCI, 2004)
Calls of active or inactive are those of the source.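 Rule for the calls: active = compounds giving half or more protection of infected cells from virus-caused growth loss, again on retest; inactive = the rest.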

System: CEM cells HIV-1 protection, formazan growth assay
Assay: NCI AIDS Antiviral Assay
Conditions: for IC50: measured here: growth of uninfected CEM cells
Summary of the method: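 Human CEM cells, uninfected and HIV-1-infected, received five drug concentrations, and growth was read by soluble formazan assay. Compounds giving at least 50% protection were retested; reproducible 100% protection defined confirmed active.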

Row | SMILES | EC50 [µM] | IC50 [µM] | outcome
1 | CCC1C(C(=O)Nc2ccccc2C)=C(C)NC(C)=C1c1ccccc1C (stereo unspecified) | > 186 | > 186 | –
2 | C/C(=N\NC(=S)N1CCN(c2ccccn2)CC1)c1nccs1 | > 145 | 0.646 | –
3 | CCOC(=O)/C(F)=C/c1cccc(F)c1 | > 170 | > 170 | –
4 | CN1C(CCl)Nc2cc(Cl)c(S(N)(=O)=O)cc2S1(=O)=O (stereo unspecified) | > 363 | 64.6 | –
5 | O=C(Nc1ccc(N=C(Nc2ccccc2)c2ccccc2)cc1)c1ccc(C(=O)Nc2ccc(N=C(Nc3ccccc3)c3ccccc3)cc2)cc1 | > 200 | 18.2 | –
6 | COc1ccc2nc(C)cc(NCCCCCCCCCNc3cc(C)nc4ccc(OC)cc34)c2c1 | > 33.1 | 0.891 | –
7 | CC1(C)SC2C(NC(=O)C(N)c3ccccc3)C(=O)N2C1C(=O)O (stereo unspecified) | > 200 | > 200 | –
8 | O=C1CCCCC1CN1CCOCC1 (stereo unspecified) | – | – | inactive
9 | COc1ccccc1NC(=S)N/C=C(\C#N)S(=O)(=O)c1ccc(C)cc1 | > 200 | > 200 | –
10 | NC1=NC2=C(CCCC2)C(c2cccs2)S1 (stereo unspecified) | > 145 | > 145 | –
11 | COCCOC(=O)NCn1cc(-c2ccccc2)nn1 | > 200 | > 200 | –
12 | CCOC(=O)C(=O)Nc1ccc(C)cc1C | > 1120 | 646 | –
13 | C/C(=N\NC(=S)Nc1ccc(S(N)(=O)=O)cc1)c1ccccn1 | > 145 | 8.51 | –
14 | CC12CC3CC(C)(C1)CC(SCCCCCN=C(N)CSSCC(N)=NCCCCCSC14CC5CC(C)(CC(C)(C5)C1)C4)(C3)C2 | > 200 | 26.9 | –
15 | CCOC(=O)C(=C(SC)SC)c1nn2c(=O)cc(C)nc2s1 | > 200 | 17.8 | –
16 | NC(=O)C(=O)c1ncn(Cc2ccccc2)c1N | > 200 | > 200 | –
17 | COc1nc2[nH]c(C)cc(=O)c2c2ccccc12 | > 200 | > 200 | –
18 | Cc1ccc(/C=N/Nc2ccc3ccccc3n2)s1 | > 200 | 21.4 | –

Row | SMILES | EC50 [µM] | IC50 [µM] | outcome
19 | Cc1cn([C@H]2C[C@@H]3[C@@H](COC(CC[Se]C#N)N3O)O2)c(=O)[nH]c1=O (stereo partly specified) | 3.98 | 28.8 | –
20 | c1cn(C23C4C5C6C4C2C6C53)cn1 (stereo unspecified) | > 200 | > 200 | –
21 | c1ccc([P+](CCCCCCCCCC[P+](c2ccccc2)(c2ccccc2)c2ccccc2)(c2ccccc2)c2ccccc2)cc1 | > 200 | 0.589 | –
22 | CN1CCN(C2=C(Cl)C3(OCCS3)C(F)(F)C2(F)F)CC1 (stereo unspecified) | > 132 | 45.7 | –
23 | Cc1ccccc1OCC(COC(=O)Nc1ccccc1)OC(=O)Nc1ccccc1 (stereo unspecified) | > 32.4 | > 32.4 | –
24 | C[N+](C)(C)CC1C2C=CC(C2)C1CO (stereo unspecified) | > 275 | > 275 | –
25 | NC1=NCN2C(=N1)OC1C(O)C(CO)OC12 (stereo unspecified) | > 200 | > 200 | –
26 | CC(=O)O[C@H]1[C@@H]2[C@@H]3[C@@H](C[C@H]1C)[C@@H](C)CO[C@@]1(C)CC/C=C(/C)C[C@@H]2O[C@@H]31 | > 100 | > 100 | –
27 | CNC(=O)N(C)COC | > 759 | 115 | –
28 | CCOC(OCC)C(CC)[Se]c1ccccc1[N+](=O)[O-] (stereo unspecified) | > 28.8 | 1.7 | –
29 | FC(F)(F)C(C1=NC(C(F)(F)F)(C(F)(F)F)N=C(N2CCOCC2)O1)C(F)(F)F | > 2 | > 2 | –
30 | N#C/C(C(=S)Nc1ccc(Cl)cc1)=C1/Nc2ccccc2O1 | > 200 | 37.2 | –
31 | COc1ccccc1C(=O)c1c(N2CCCCC2)c(=O)c1=O | 182 | > 200 | –
32 | Cc1ccc2nc(N)[nH]c(=O)c2c1Sc1ccncc1 | > 363 | 1.35 | –
33 | O=c1c(SCc2ccc(Cl)cc2Cl)c(SCc2ccc(Cl)cc2Cl)cnn1-c1ccccc1 | > 46.8 | > 46.8 | –
34 | COc1cc2c(cc1OC)C1C(=O)c3c(O)cc4c(c3OC1CO2)C=CC(C)(C)O4 (stereo unspecified) | > 1.82 | 0.891 | –
35 | Nc1nc(NNc2ccc(Cl)c(Cl)c2)cc(=O)[nH]1 | > 200 | 49 | –
36 | CC(C)C(/C=C/c1ccccc1)=N\NC(=S)NN | > 200 | 102 | –
